Experiments:
[1] = biological target: D(2) dopamine receptor (Homo sapiens, UniProt P14416); experiment: Binding affinity to dopamine 2 receptor (unknown origin)
[2] = biological target: Alpha-2C adrenergic receptor (Homo sapiens, UniProt P18825); experiment: Binding affinity to adrenergic alpha2C receptor (unknown origin)
[3] = biological target: 5-hydroxytryptamine receptor 1D (Homo sapiens, UniProt P28221); experiment: Binding affinity to 5HT1D receptor (unknown origin)
[4] = biological target: 5-hydroxytryptamine receptor 2B (Homo sapiens, UniProt P41595); experiment: Binding affinity to 5HT2B receptor (unknown origin)
[5] = biological target: Alpha-1A adrenergic receptor (Homo sapiens, UniProt P35348); experiment: Binding affinity to adrenergic alpha1A receptor (unknown origin)
[6] = biological target: Histamine H2 receptor (Homo sapiens, UniProt P25021); experiment: Binding affinity to histamine H2 receptor (unknown origin)
[7] = biological target: D(1A) dopamine receptor (Homo sapiens, UniProt P21728); experiment: Binding affinity to dopamine 1 receptor (unknown origin)
[8] = Binding affinity to sigma 2 receptor (unknown origin); design: species or system Homo sapiens
[9] = biological target: Alpha-1D adrenergic receptor (Homo sapiens, UniProt P25100); experiment: Binding affinity to adrenergic alpha1D receptor (unknown origin)
[10] = Binding affinity to benzodiazepine receptor in rat brain; assay type: tissue-based
[11] = biological target: T1, 5-hydroxytryptamine receptor 1A (Homo sapiens, UniProt P08908); experiment: Partial agonist activity at human 5HT1A receptor expressed in CHO cells assessed as increase in [35S]GTPgammaS binding; assay type: functional, cell-based
T1 sequence (P08908 whole entry): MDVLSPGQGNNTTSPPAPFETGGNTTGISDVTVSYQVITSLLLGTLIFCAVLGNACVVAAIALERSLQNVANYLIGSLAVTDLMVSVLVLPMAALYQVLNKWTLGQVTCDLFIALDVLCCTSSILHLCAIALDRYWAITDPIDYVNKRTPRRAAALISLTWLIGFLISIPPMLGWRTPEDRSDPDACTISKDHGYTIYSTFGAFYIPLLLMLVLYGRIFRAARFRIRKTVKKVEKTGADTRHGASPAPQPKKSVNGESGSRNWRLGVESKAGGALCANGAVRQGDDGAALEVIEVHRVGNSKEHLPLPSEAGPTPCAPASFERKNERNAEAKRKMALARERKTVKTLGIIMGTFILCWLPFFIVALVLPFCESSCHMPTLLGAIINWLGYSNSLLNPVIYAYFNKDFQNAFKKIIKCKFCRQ

[12] = biological target: D(4) dopamine receptor (Homo sapiens, UniProt P21917); experiment: Binding affinity to dopamine 4 receptor (unknown origin)
[13] = biological target: Histamine H1 receptor (Homo sapiens, UniProt P35367); experiment: Binding affinity to histamine H1 receptor (unknown origin)
[14] = biological target: 5-hydroxytryptamine receptor 1A (Homo sapiens) (UniProt P08908); experiment: Partial agonist activity at human 5HT1A receptor expressed in CHO cells assessed as increase in [35S]GTPgammaS binding relative to serotonin; assay type: functional, cell-based
[15] = biological target: 5-hydroxytryptamine receptor 1B (Homo sapiens, UniProt P28222); experiment: Binding affinity to 5HT1B receptor (unknown origin)
[16] = biological target: Sigma non-opioid intracellular receptor 1 (Homo sapiens, UniProt Q99720); experiment: Binding affinity to sigma 1 receptor (unknown origin)
[17] = biological target: T1, 5-hydroxytryptamine receptor 1A; experiment: Binding affinity to 5HT1A receptor (unknown origin)
[18] = biological target: D(3) dopamine receptor (Homo sapiens, UniProt P35462); experiment: Binding affinity to dopamine 3 receptor (unknown origin)
[19] = biological target: 5-hydroxytryptamine receptor 7 (Homo sapiens, UniProt P34969); experiment: Binding affinity to 5HT7 receptor (unknown origin)
[20] = biological target: Alpha-2B adrenergic receptor (Homo sapiens, UniProt P18089); experiment: Binding affinity to adrenergic alpha2B receptor (unknown origin)
[21] = biological target: Alpha-1B adrenergic receptor (Homo sapiens, UniProt P35368); experiment: Binding affinity to adrenergic alpha1B receptor (unknown origin)
[22] = biological target: Alpha-2A adrenergic receptor (Homo sapiens, UniProt P08913); experiment: Binding affinity to adrenergic alpha2A receptor (unknown origin)
[23] = biological target: 5-hydroxytryptamine receptor 2A (Homo sapiens, UniProt P28223); experiment: Binding affinity to 5HT2A receptor (unknown origin)
[24] = biological target: 5-hydroxytryptamine receptor 5A (Homo sapiens, UniProt P47898); experiment: Binding affinity to 5HT5A receptor (unknown origin)

Histamine H1 receptor, sequence (P35367 whole entry): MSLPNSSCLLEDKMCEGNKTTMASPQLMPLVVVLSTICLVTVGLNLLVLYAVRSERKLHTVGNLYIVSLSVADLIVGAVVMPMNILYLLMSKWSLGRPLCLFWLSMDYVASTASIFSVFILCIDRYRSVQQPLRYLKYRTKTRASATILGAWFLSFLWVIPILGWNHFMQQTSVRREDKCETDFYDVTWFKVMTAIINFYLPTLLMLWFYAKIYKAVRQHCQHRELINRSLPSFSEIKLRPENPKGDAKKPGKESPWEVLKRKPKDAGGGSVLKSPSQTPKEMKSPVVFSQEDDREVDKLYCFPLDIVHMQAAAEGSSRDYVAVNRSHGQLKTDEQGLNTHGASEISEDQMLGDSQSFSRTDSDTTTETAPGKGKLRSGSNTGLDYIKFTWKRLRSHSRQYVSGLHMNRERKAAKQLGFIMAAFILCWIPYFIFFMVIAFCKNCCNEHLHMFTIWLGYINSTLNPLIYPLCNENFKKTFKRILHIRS
Sigma non-opioid intracellular receptor 1, sequence (Q99720 whole entry): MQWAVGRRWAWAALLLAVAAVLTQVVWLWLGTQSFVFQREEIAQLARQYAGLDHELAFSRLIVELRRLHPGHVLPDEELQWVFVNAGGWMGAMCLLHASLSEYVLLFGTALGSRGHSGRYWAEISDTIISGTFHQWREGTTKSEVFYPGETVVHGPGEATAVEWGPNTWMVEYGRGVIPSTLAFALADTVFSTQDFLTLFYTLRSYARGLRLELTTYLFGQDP
Alpha-2C adrenergic receptor, sequence (P18825 whole entry): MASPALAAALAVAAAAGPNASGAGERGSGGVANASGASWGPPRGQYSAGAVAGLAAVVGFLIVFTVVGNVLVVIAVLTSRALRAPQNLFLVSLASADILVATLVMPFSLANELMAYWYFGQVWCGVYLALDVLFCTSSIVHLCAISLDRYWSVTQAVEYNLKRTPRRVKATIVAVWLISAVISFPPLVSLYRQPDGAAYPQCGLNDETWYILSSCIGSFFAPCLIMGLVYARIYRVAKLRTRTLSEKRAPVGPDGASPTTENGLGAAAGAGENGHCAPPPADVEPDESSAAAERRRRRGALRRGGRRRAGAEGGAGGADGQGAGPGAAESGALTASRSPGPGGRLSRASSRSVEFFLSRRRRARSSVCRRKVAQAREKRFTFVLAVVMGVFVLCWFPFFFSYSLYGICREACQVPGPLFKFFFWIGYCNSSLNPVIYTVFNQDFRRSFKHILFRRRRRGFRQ
D(4) dopamine receptor, sequence (P21917 whole entry): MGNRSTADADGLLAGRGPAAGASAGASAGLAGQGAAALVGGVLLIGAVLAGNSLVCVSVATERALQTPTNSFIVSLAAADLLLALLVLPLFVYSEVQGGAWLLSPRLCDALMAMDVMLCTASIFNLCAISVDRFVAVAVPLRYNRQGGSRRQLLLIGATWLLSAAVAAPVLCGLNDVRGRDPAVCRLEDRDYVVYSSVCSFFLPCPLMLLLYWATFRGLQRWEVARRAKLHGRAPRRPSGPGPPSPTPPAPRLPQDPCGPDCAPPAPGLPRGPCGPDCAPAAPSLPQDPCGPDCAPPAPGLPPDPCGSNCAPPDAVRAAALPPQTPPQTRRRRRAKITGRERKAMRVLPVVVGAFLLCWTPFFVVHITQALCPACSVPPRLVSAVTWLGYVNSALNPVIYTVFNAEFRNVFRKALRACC
Alpha-1B adrenergic receptor, sequence (P35368 whole entry): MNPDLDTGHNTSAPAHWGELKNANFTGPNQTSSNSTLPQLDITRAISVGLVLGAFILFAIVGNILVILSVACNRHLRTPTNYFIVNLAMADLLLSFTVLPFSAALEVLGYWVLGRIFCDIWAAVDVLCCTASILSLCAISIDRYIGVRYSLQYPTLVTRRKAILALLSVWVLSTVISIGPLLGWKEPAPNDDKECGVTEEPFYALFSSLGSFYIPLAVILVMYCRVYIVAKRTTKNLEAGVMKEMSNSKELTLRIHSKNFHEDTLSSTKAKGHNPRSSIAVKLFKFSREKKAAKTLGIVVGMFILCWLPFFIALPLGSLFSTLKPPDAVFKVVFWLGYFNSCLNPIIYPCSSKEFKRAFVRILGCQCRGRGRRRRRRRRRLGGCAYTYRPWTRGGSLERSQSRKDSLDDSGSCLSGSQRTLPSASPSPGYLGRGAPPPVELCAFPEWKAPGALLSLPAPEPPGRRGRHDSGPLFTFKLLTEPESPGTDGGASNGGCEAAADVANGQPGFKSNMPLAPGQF
Histamine H2 receptor, sequence (P25021 whole entry): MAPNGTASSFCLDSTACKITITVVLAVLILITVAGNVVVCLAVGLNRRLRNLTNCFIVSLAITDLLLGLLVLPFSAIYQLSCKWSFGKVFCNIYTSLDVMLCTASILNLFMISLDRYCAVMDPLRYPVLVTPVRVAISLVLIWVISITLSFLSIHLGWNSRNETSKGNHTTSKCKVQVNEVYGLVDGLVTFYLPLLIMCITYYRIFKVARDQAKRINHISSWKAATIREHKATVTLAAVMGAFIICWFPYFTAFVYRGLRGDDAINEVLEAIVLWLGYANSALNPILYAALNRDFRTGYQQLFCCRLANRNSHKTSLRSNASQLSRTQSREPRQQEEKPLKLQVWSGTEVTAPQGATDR
Alpha-1A adrenergic receptor, sequence (P35348 whole entry): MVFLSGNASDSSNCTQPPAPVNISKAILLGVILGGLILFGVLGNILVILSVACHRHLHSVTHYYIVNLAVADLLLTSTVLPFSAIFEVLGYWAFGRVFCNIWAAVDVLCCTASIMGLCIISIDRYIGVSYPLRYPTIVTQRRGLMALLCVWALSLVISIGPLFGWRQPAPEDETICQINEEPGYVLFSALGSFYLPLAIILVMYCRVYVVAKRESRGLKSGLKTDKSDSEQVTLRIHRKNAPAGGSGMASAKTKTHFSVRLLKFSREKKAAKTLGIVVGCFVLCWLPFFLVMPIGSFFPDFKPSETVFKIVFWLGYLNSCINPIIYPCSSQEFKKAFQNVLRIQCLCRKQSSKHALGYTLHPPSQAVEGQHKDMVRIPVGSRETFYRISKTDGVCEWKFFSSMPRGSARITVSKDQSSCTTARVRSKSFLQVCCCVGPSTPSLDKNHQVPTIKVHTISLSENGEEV
Alpha-2A adrenergic receptor, sequence (P08913 whole entry): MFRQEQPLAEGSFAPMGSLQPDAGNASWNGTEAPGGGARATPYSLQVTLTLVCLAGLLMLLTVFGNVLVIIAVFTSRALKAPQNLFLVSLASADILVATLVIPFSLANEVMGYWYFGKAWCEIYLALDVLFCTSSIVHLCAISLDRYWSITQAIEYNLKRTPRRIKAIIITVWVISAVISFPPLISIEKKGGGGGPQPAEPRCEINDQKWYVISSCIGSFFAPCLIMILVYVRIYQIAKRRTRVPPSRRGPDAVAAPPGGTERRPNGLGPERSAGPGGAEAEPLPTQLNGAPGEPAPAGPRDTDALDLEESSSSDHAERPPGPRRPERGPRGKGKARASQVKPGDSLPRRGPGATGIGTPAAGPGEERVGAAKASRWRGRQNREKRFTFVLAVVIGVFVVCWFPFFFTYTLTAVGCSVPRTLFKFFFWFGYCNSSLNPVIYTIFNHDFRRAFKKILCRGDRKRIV
Alpha-2B adrenergic receptor, sequence (P18089 whole entry): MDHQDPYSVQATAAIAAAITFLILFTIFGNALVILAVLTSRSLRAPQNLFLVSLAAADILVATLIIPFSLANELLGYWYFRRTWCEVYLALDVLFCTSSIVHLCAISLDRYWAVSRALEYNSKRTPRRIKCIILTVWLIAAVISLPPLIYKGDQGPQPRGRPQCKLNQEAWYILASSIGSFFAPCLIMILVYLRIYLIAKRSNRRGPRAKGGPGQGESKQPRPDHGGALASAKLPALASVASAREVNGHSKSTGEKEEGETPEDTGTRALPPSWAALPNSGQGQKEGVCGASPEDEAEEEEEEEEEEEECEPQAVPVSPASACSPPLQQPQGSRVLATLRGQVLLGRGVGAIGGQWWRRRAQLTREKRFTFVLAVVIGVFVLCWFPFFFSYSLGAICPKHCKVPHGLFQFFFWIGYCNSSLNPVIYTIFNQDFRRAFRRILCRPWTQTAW
D(1A) dopamine receptor, sequence (P21728 whole entry): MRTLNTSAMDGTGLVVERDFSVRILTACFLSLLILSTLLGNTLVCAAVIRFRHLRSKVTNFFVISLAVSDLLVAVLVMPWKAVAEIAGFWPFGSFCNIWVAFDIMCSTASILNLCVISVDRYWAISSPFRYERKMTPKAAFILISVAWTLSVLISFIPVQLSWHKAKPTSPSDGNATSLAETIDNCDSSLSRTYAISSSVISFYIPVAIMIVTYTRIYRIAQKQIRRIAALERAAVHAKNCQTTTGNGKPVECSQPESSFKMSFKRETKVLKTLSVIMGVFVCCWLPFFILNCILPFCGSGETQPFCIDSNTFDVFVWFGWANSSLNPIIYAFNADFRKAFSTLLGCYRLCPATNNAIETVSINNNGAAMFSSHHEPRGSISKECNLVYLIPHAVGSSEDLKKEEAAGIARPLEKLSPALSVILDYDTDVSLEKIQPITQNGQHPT
5-hydroxytryptamine receptor 1D, sequence (P28221 whole entry): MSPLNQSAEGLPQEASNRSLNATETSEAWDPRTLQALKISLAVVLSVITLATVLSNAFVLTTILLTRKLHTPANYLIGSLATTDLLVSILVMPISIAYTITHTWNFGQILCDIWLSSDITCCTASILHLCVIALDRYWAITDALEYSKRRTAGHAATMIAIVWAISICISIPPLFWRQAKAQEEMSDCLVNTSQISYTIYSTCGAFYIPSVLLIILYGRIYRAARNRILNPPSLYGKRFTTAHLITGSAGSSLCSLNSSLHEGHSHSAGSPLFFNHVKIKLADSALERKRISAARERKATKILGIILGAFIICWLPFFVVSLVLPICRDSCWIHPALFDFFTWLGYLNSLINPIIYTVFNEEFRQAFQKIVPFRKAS

Work on `Cn1c(=O)cnn(CCCCN2CCN(c3ccccc3OCCF)CC2)c1=O` yielded a Ki [1] of 0.0371 µM, a Ki [2] of 0.174 µM and a Ki [3] of 0.235 µM. It also gave a Ki [4] of 0.3 µM, a Ki [5] of 0.0214 µM and a Ki [6] of 1.77 µM. It also gave a Ki [7] of over 10 µM, a Ki [8] of 1.73 µM and a Ki [9] of 0.0626 µM. It also gave a Ki [10] of 6.24 µM, an EC50 [11] of 0.00065 µM and a Ki [12] of 0.071 µM. It also gave a Ki [13] of 0.512 µM, an Emax [14] of 77% and a Ki [15] of 0.411 µM. The Ki [16] was over 10 µM, the Ki [17] was 0.0001 µM and the Ki [18] was 0.022 µM. It also gave a Ki [19] of 0.0172 µM, a Ki [20] of 0.0562 µM and a Ki [21] of 0.0268 µM. It also gave a Ki [22] of 2.75 µM, a Ki [23] of over 10 µM and a Ki [24] of 2.13 µM.

Reference: ChEMBL document CHEMBL2413016, “Synthesis and in vivo evaluation of [(18)F]2-(4-(4-(2-(2-fluoroethoxy)phenyl)piperazin-1-yl)butyl)-4-methyl-1,2,4-triazine-3,5(2H,4H)-dione ([(18)F]FECUMI-101) as an imaging probe for 5-HT1A receptor agonist in nonhuman primates” (Bioorg Med Chem, 2013)
